The values that follow come from EP3679952A1, “NANOEMULSIONS ENCAPSULATING PRODRUGS” (Université de Strasbourg, priority 2019, dated 2020).

Molecules are shown by their SMILES.

One data set relates to Jimt1. In words: MTS cytotoxicity assay in cell culture. Type of data set: cell-based, Human. Particulars: Jimt1 cells, 48h incubation, prodrugs loaded in nanoemulsion, free drugs without nanoemulsion. How it is done:
(§1) The MTS assay is based on the reduction of the MTS tetrazolium compound by viable mammalian cells (here, by tumor cells) to generate a colored formazan dye that is soluble in cell culture media. The formazan dye is quantified by measuring the absorbance at 490-500 nm. […] After 24h, the medium was removed and replaced by drug-containing (LipoHD-DOX nanoemulsion or DOX alone) medium. After 48h, the medium was removed and replaced with MTS-containing medium (0,5 mg/ml). After 4h of incubation, the medium was removed, replaced with 100µl of DMSO (agitation, 20 min) and the absorbance was read at 570 nm.
Background: Tetrazolium assays rely on reduction of a dye to a coloured formazan, in cell work by metabolically active cells.

For the next data set, the system named is MDA-MB-231. In words: MTS cytotoxicity assay in cell culture. Format: cell-based, Human. Particulars: MDA-MB-231 cells, 48h incubation, prodrugs loaded in nanoemulsion, free drugs without nanoemulsion. The protocol:
as §1

A further data set has as its system 4T1. In words: MTS cytotoxicity assay in cell culture. Type of data set: cell-based, mouse. Particulars: 4T1 cells, 48h incubation, prodrugs loaded in nanoemulsion, free drugs without nanoemulsion. The protocol:
as §1

A short description of data set [1]: DOX encapsulation in nanoemulsions with or without Lipo-HD, absorption spectra after dialysis (Example 1). Format: physicochemical. As to conditions: for loading: after dialysis; for retention inside nanoemulsions after dialysis: dialysis in 0.1M NaHCO3 for 12h. The protocol: The compound Lipo-HD was dissolved firstly into the oil Labrafac® at 10 wt%. Then 65 mg of surfactant Solutol was added to 35 mg of above solution. The mixture was homogenized under magnetic stirring at 90°C for 10 min up to complete homogenisation. Finally, nanoemulsions were generated with the addition of ultrapure (Milli-Q) water (230 mg). The size of nanoemulsions could be monitored by the variation of the ratio between oil (labrafac) and surfactant (solutol). For fluorescence studies, 0.5 wt% of a donor dye […] is added respectively to Labrafac® containing or not 10 wt% of Lipo-HD. Then the nanoemulsions were prepared as described above. […] was used for monitoring the encapsulation, release and stability of the nanoemulsion by looking on the intensity variation between […] and DOX. […] To those solutions, […] of DOX-HCl (30 mM) was added. The mixtures were vortexes for 12 h at 37 °C. The Scheme of synthesis is illustrated in figure 1. The resulting solutions were dialyzed in 500 mL of 0.1M NaHCO3 for 12h. Absorption spectra were recorded on a Cary® spectrophotometer (Varian) according to conventional measurement method.

Data set [2] in a line: Size distribution of nanoemulsions by dynamic light scattering. Type of data set: physicochemical. Particulars: nanoemulsion with the compound at 5 wt% in Labrafac, Cremophore, reacted with doxorubicin (Example 2). How it is done: The compound Lipo-HD was dissolved firstly into the oil Labrafac® at 10 wt%. Then 65 mg of surfactant Solutol was added to 35 mg of above solution. The mixture was homogenized under magnetic stirring at 90°C for 10 min up to complete homogenisation. Finally, nanoemulsions were generated with the addition of ultrapure (Milli-Q) water (230 mg). The size of nanoemulsions could be monitored by the variation of the ratio between oil (labrafac) and surfactant (solutol).
Size distributions were determined by dynamic light scattering using Zetasizer Nano ZSP (Malvern Instruments S.A).
(§2) Corresponding compounds of formula II'a were respectively dissolved first into the oil Labrafac® at 5 wt%. Then 45 mg of surfactant Cremophore ® was added to 55 mg of above solution. The mixture was homogenized under magnetic stirring at 40°C for 10 min up to complete homogenisation. Finally, nanoemulsions were generated with the addition of phosphate buffered saline (230 mg).

Data set [3] can be described thus: Storage stability of nanoemulsions (absorption spectra, precipitation) after 4 days. Format: physicochemical. As to conditions: for change of absorption spectra on storage: nanoemulsions of the compound reacted with DOX, after 4 days storage at 4°C. How it is done:
• Figure 1: Scheme of synthesis of DOX/Lipo-HD conjugate in situ inside lipid nanoemulsions. • Figure 2A: Absorption spectra of 100 timed diluted nanoemulsions containing reference dye F888 and with Lipo-HD alone (F888-Lipo-HD), of 100 timed diluted nanoemulsions with Lipo-HD after incubation with DOX (F888-Lipo-HD-DOX), and of nanoemulsions encapsulating F888-Lipo-HD-DOX and further dialysis (F888-Lipo-HD-DOX after dialysis). Reference dye F888 was encapsulated at 0.5 wt% of with respect to Labrafac oil. Lipo-HD was encapsulated at 10 wt%. • Figure 2B: Absorption spectra of 100 timed diluted nanoemulsions containing F888 but without Lipo-HD (F888), of 100 times diluted nanoemulsions containing F888 after incubation with DOX (F888-DOX), and of nanoemulsion encapsulating F888-DOX further dialysis (F888-DOX after dialysis). […] Reference dye F888 was encapsulated at 0.5 wt%. • Figure 4A: Fluorescence spectra of nanoemulsions encapsulating 0.5 wt% of donor dye F888 with 10 wt% of Lipo-HD (F888-Lipo-HD) or without Lipo-HD (F888). • Figure 4B: Fluorescence spectra of nanoemulsions with Lipo-HD incubated with DOX and then dialyzed (F888-Lipo-HD-DOX), of nanoemulsions without Lipo-HD incubated with DOX and then dialyzed (F888-DOX), and of nanoemulsions containing F888 alone (F888). […] All fluorescence spectra were corrected from the blank. • Figures 5A, 5B: Fluorescence spectra of F888-Lipo-HD-DOX nanoemulsions (5000-fold dilution) in the presence of blank nanoemulsions (50-fold dilution) at pH 7.4 (Fig. 5A) and 4.0 (Fig. 5B). […] All fluorescence spectra were corrected from the blank. • Figures 5C: Fluorescence intensity ratio donor/acceptor as a function of incubation time for pH 7.4 and 4.0 (Fig. 5C). • Figure 6A, 6B: Absorption spectra of four nanoemulsions containing respectively a compound of formula I'a, where R1 and R2 are butyl (C4)-alkyl chains, or octyl (C8)-alkyl chains, or octadecyl (C18)-alkyl chains, or R1 is a single C18 alkyl-chain, while R2 = H (C18 mono chain). […]

Data set [4] is described as follows: Doxorubicin loading of nanoemulsions containing compounds of formula II'a (Example 2). Particulars: nanoemulsion with the compound at 5 wt% in Labrafac, Cremophore, reacted with doxorubicin at pH 4, 37°C, 24h, then dialysed 24h and centrifuged. Format: physicochemical. How it is done:
as §2
300 µl of the obtained nanoemulsion encapsulating the compound of formula II'a were diluted into 300 µl of 20 mM acetate buffer (pH=4), and then 50 µl of 30 mM solution of doxorubicin in DMSO was added. The mixture was reacted under shaking at 37°C during 24h.
After the reaction, the sample was dialysed for 24h at NaHCO3 buffer (0.1 M) at pH8 and then centrifugation at 6000 rpm for 1 minute was carried out.

Regarding `COc1cccc2c1C(=O)c1c(O)c3c(c(O)c1C2=O)C[C@@](O)(C(=O)CO)C[C@@H]3O[C@H]1C[C@H](N)[C@H](O)[C@H](C)O1` [DOX, doxorubicin, reference compound], the Cytotoxicity entry with Jimt1, with MDA-MB-231 and with 4T1 was “dose-dependent cytotoxicity” in each case. In addition, in data set [1] (DOX loading of nanoemulsion without Lipo-HD), the loading is < 0.06%. Besides, in data set [1], the “retention inside nanoemulsions after dialysis” value was “leaked out”.

With `CCCCCCCCCCCCCCCCCCNC(=O)CCC(=O)NN` [Lipo-HD-C18], in data set [2], the PDI was determined as 0.132 and the “Size (nm)” value came out at 104nm. Further, the precipitation of nanoemulsion result in data set [3] (nanoemulsion of the compound reacted with DOX, 4 days after preparation) is “signs of precipitation”. Besides, in data set [3], the “change of absorption spectra on storage” value is “strong loss of absorbance”. In data set [4], the “Encapsulation loading (%)” value is reported as 0.68% and the “loading efficiency (%)” value is 21%.

As for `CC(=O)O[C@H]1C(=O)[C@@]2(C)[C@H]([C@H](OC(=O)c3ccccc3)[C@]3(O)C[C@H](OC(=O)[C@H](O)[C@@H](NC(=O)c4ccccc4)c4ccccc4)C(C)=C1C3(C)C)[C@]1(OC(C)=O)CO[C@@H]1C[C@@H]2O` [paclitacel, paclitaxel, reference compound], the Cytotoxicity entry with Jimt1, in the data set with MDA-MB-231 and in the data set with 4T1 was “slightly higher” each time.

Take `CCCCCCCCCCCCCCCCCCN(CCCCCCCCCCCCCCCCCC)C(=O)CCC(=O)NN=C(CO)C1(O)Cc2c(O)c3c(c(O)c2C(OC2CC(N)C(O)C(C)O2)C1)C(=O)c1c(OC)cccc1C3=O` (stereo not shown) [Lipo-HD-DOX]: the Cytotoxicity entry with Jimt1 is “higher toxicity”; in the data set with MDA-MB-231, “higher toxicity”; with 4T1, “similarly”. For the same molecule, in data set [1] (conjugate formed in situ in nanoemulsion, compared with DOX alone), the solubility in oil entry was “much better soluble in oil than DOX alone”. Moreover, in data set [1], the “retention inside nanoemulsions after dialysis” value is “remain inside nanoemulsions after dialysis”.

`CCCCCCCCCCCCCCCCCCN(CCCCCCCCCCCCCCCCCC)C(=O)CCC(=O)Nc1ccn([C@@H]2O[C@H](CO)[C@@H](O)C2(F)F)c(=O)n1` [Lipo-N-Gem]: the Cytotoxicity result in the data set with Jimt1 is listed as “slightly more efficient”; with MDA-MB-231 it was “slightly more efficient”; in the data set with 4T1, “dose-dependent”.

`CCCCCCCCCCCCCCCCCCN(CCCCCCCCCCCCCCCCCC)C(=O)CCC(=O)NN` [Lipo-HD, 3-(hydrazinecarbonyl)-N,N-dioctadecylpropanamide]: in data set [2], the PDI was 0.118 and the “Size (nm)” value came out at 99nm. For the same molecule, the loading in data set [1] (DOX loading with respect to labrafac oil, nanoemulsion with 10 wt% Lipo-HD, calculated with extinction coefficient of DOX 12 200 M^-1cm^-1) was 1.6 wt%. Moreover, in data set [3], the “change of absorption spectra on storage” value is on record as “minimal changes”. In data set [4], the “Encapsulation loading (%)” value is 1.58% and the “loading efficiency (%)” value worked out at 55%.
